# Measurements: patent publication US8580752B2, “Aromatic amides as potentiators of bioefficacy of anti-infective drugs” (priority 2005, dated 2013)
# Like-named read-outs stand apart in the source and are kept apart here.
# Experiments:
# Gm +ve bacteria = assay: microbe, parasite or virus in culture; format: cell-based, Gram positive; settings: for MIC: drug alone, Gm +ve bacteria
# Gm −ve bacteria = assay: microbe, parasite or virus in culture; format: cell-based, Gram negative
# M. tb = assay: MIC of anti infective drugs alone and with potentiators; format: cell-based, Mycobacterium tuberculosis; settings: for MIC Drug + potentiator: Ciprofloxacin + potentiator; for % decrease in MIC: Ciprofloxacin + potentiator vs drug alone
# M. tuberculosis H37Rv = assay: MIC by checkerboard method; format: cell-based, Mycobacterium tuberculosis; settings: Tables 5A/5B, M tuberculosis H37Rv
# MRSA = assay: MIC by checkerboard method, comparison with piperine; format: cell-based, Staphylococcus aureus; settings: Tables 5A/5B; for MIC: Staphylococcus aureus, read-out: MIC Mupirocin
# S aureus ATCC 29213 = assay: MIC by checkerboard method; format: cell-based, Staphylococcus aureus; settings: for MIC: Staphylococcus aureus, ATCC29213, Tables 5A/5B, read-out: MIC Mupirocin; for MIC Amikacin / MIC Ciprofloxacin: Tables 5A/5B
# [1] = with the labelled potentiator +6.25 μg/ml
# [2] = with the labelled potentiator +12.5 μg/ml
# [3] = with the labelled potentiator +25.0 μg/ml
# [4] = with the labelled potentiator +50.0 μg/ml
smiles,measurement,setting,value
"CCC(/C=C/C(=O)N1CCCCC1)=C\c1ccc(OC)c(OC)c1 [4-ethyl-5-(3,4-dimethoxyphenyl)-2E,4E-pentadienoic acid piperidide]",% decrease in MIC,Gm +ve bacteria,50-76%
same,MIC Drug + potentiator,Gm +ve bacteria,0.06 to 8 µg/mL
same,% decrease in MIC,Gm −ve bacteria,0-50%
same,MIC Drug + potentiator,Gm −ve bacteria,0.03 to 0.25 µg/mL
same,MIC Drug + potentiator,M. tb,0.25 to 0.5 µg/mL
same,% decrease in MIC,M. tb,50%
"CCC(/C=C/C(=O)N1CCCCC1)=C\c1cc2c(c([N+](=O)[O-])c1)OCO2 [5-(3,4-methylenedioxy-5-nitrophenyl)-4-ethyl-2E,4E-pentadienoic acid piperidide]",% decrease in MIC,Gm +ve bacteria,0-50%
same,MIC Drug + potentiator,Gm +ve bacteria,0.03 to 0.25 µg/mL
"CCC(/C=C/C(=O)N1CCC(O)CC1)=C\c1ccc2c(c1)OCO2 [5-(3,4-methylenedioxyphenyl)-4-ethyl-2E,4E-pentadienoic acid-4-hydroxypiperidide]",% decrease in MIC,Gm +ve bacteria,0-50%
same,MIC Drug + potentiator,Gm +ve bacteria,0.03 to 0.25 µg/mL
"CCC(CCC(=O)N1CCCCC1)Cc1ccc2c(c1)OCO2 (stereo not drawn) [5-(3,4-methylenedioxyphenyl)-4-ethyl-pentanoic acid piperidide]",% decrease in MIC,Gm +ve bacteria,0-50%
same,MIC Drug + potentiator,Gm +ve bacteria,0.03 to 0.25 µg/mL
"CC(/C=C/C(=O)NC(C)c1ccc(Br)cc1)=C\c1ccc2c(c1)OCO2 (stereo not drawn) [5-(3,4-methylenedioxyphenyl)-4-methyl-2E,4E-pentadienoic acid-1-(4-bromophenyl)ethylamide]",% decrease in MIC,Gm +ve bacteria,50-76%
same,MIC Drug + potentiator,Gm +ve bacteria,0.06 to 8 µg/mL
same,% decrease in MIC,Gm −ve bacteria,0-50%
same,MIC Drug + potentiator,Gm −ve bacteria,0.03 to 0.25 µg/mL
same,MIC Drug + potentiator,M. tb,0.25 to 0.5 µg/mL
same,% decrease in MIC,M. tb,50%
"CC(/C=C/C(=O)N1CCN(C)CC1)=C\c1ccc2c(c1)OCO2 [5-(3,4-methylenedioxyphenyl)-4-methyl-2E,4E-pentadienoic acid-N-methylpiperazide]",% decrease in MIC,Gm +ve bacteria,50-76%
same,MIC Drug + potentiator,Gm +ve bacteria,0.06 to 0.12 µg/mL
"CCCCC(/C=C/C(=O)N1CCCCC1)=C\c1ccc2c(c1)OCO2 [5-(3,4-methylenedioxyphenyl)-4-n-butyl-2E,4E-pentadienoic acid piperidide]",% decrease in MIC,Gm +ve bacteria,50-76%
same,MIC Drug + potentiator,Gm +ve bacteria,0.06 to 8 µg/mL
same,% decrease in MIC,Gm −ve bacteria,0-50%
same,MIC Drug + potentiator,Gm −ve bacteria,0.03 to 0.25 µg/mL
same,MIC Drug + potentiator,M. tb,0.25 to 0.5 µg/mL
same,% decrease in MIC,M. tb,50%
"CCN(CC)C(=O)/C=C/C(C)=C/c1ccc2c(c1)OCO2 [Formula 1a, R = CH3, do, R5 = R6 = C2H5, 5-(3,4-methylenedioxyphenyl)-4-methyl-2E,4E-pentadienoic acid-N,N-diethylamide]",% decrease in MIC,Gm +ve bacteria,50-76%
same,MIC Drug + potentiator,Gm +ve bacteria,0.06 to 0.12 µg/mL
"CCn1cc(C(=O)O)c(=O)c2cc(F)c(N3CCNCC3)cc21 [Norfloxacin, reference compound]",MIC,Gm +ve bacteria,0.12 to 32 µg/mL
same,MIC Drug alone,"Gm −ve bacteria; drug alone, Gm −ve bacteria",0.03 to 64 µg/mL
"CC1COc2c(N3CCN(C)CC3)c(F)cc3c(=O)c(C(=O)O)cn1c23 (stereo not drawn) [Ofloxacin, reference compound]",MIC,Gm +ve bacteria,12 to 32 µg/mL
same,MIC,"Gm −ve bacteria; drug alone, Gm −ve bacteria, read-out: MIC Drug alone",0.06 to 32 µg/mL
same,MIC,"M. tb; Mycobacterium tuberculosis, drug alone",0.5 to 2.5 µg/mL
"O=C(/C=C/C=C/c1ccc2c(c1)OCO2)N1CCCCC1 [Piperine, reference compound]",MIC Rifampicin,M. tuberculosis H37Rv; [1],0.12 µg/mL
same,MIC Rifampicin,M. tuberculosis H37Rv; [2],0.06 µg/mL
same,MIC Rifampicin,M. tuberculosis H37Rv; [3],0.06 µg/mL
same,MIC,MRSA; [1],0.12 µg/mL
same,MIC,MRSA; [2],0.12 µg/mL
same,MIC,MRSA; [3],0.06 µg/mL
same,MIC,MRSA; [4],0.06 µg/mL
same,MIC Amikacin,MRSA; [1],4.0 µg/mL
same,MIC Ciprofloxacin,MRSA; [1],32 µg/mL
same,MIC Amikacin,MRSA; [2],4.0 µg/mL
same,MIC Ciprofloxacin,MRSA; [2],32 µg/mL
same,MIC Amikacin,MRSA; [3],4.0 µg/mL
same,MIC Ciprofloxacin,MRSA; [3],32 µg/mL
same,MIC Amikacin,MRSA; [4],4.0 µg/mL
same,MIC Ciprofloxacin,MRSA; [4],16 µg/mL
same,MIC,S aureus ATCC 29213; [1],0.12 µg/mL
same,MIC,S aureus ATCC 29213; [2],0.12 µg/mL
same,MIC,S aureus ATCC 29213; [3],0.06 µg/mL
same,MIC,S aureus ATCC 29213; [4],0.06 µg/mL
same,MIC Amikacin,S aureus ATCC 29213; [1],2.0 µg/mL
same,MIC Ciprofloxacin,S aureus ATCC 29213; [1],0.25 µg/mL
same,MIC Amikacin,S aureus ATCC 29213; [2],1.0 µg/mL
same,MIC Ciprofloxacin,S aureus ATCC 29213; [2],0.25 µg/mL
same,MIC Amikacin,S aureus ATCC 29213; [3],0.5 µg/mL
same,MIC Ciprofloxacin,S aureus ATCC 29213; [3],0.12 µg/mL
same,MIC Amikacin,S aureus ATCC 29213; [4],0.25 µg/mL
same,MIC Ciprofloxacin,S aureus ATCC 29213; [4],0.12 µg/mL
